Experimental data: publication PMC10924921, “Mi-2β promotes immune evasion in melanoma by activating EZH2 methylation” (Nature Communications, 2024)

Columns and labels:
Assay in all cases: biochemical
Set-up in all cases: KINOMEscan active-site competition binding panel (468 kinase assays), per cent of control at 1000 nM
Settings in all cases: KINOMEscan per cent of control (binding competition); read-out: Percent Control
[1] = molecular target: T1, ABL1(F317L)-nonphosphorylated (Homo sapiens, UniProt P00519, F317L)
T1 construct: nonphosphorylated
Text: (§1) Figure S7 / Percent Control

RIOK2 = RIOK2 (Homo sapiens, UniProt Q9BVS4)
Text: as §1

EGFR(L747-T751del,Sins) = EGFR(L747-T751del,Sins) (Homo sapiens, UniProt P00533, DEL747-750/T751S)
Text: as §1

RIPK5 = molecular target: T2, RIPK5 (Homo sapiens, UniProt Q6XUX3)
T2 construct: gene DSTYK
Text: as §1

DDR1 = DDR1 (Homo sapiens, UniProt Q08345)
Text: as §1

CASK = CASK (Homo sapiens, UniProt O14936)
Text: as §1

RIPK1 = RIPK1 (Homo sapiens, UniProt Q13546)
Text: as §1

LATS1 = LATS1 (Homo sapiens, UniProt O95835)
Text: as §1

PIK3CG = PIK3CG (Homo sapiens, UniProt P48736)
Text: as §1

IKK-epsilon = molecular target: T3, IKK-epsilon (Homo sapiens, UniProt Q14164)
T3 construct: gene IKBKE
Text: as §1

MST2 = molecular target: T4, MST2 (Homo sapiens, UniProt Q13188)
T4 construct: gene STK3
Text: as §1

SNARK = molecular target: T5, SNARK (Homo sapiens, UniProt Q9H093)
T5 construct: gene NUAK2
Text: as §1

CDC2L1 = molecular target: T6, CDC2L1 (Homo sapiens, UniProt P21127)
T6 construct: gene CDK11B
Text: as §1

ZAP70 = ZAP70 (Homo sapiens, UniProt P43403)
Text: as §1

TXK = TXK (Homo sapiens, UniProt P42681)
Text: as §1

PKN2 = PKN2 (Homo sapiens, UniProt Q16513)
Text: as §1

MLK2 = molecular target: T7, MLK2 (Homo sapiens, UniProt Q02779)
T7 construct: gene MAP3K10
Text: as §1

MARK1 = MARK1 (Homo sapiens, UniProt Q9P0L2)
Text: as §1

EGFR(L858R,T790M) = EGFR(L858R,T790M) (Homo sapiens, UniProt P00533, L858R/T790M)
Text: as §1

AURKA = AURKA (Homo sapiens, UniProt O14965)
Text: as §1

EGFR(G719S) = EGFR(G719S) (Homo sapiens, UniProt P00533, G719S)
Text: as §1

MET(Y1235D) = MET(Y1235D) (Homo sapiens, UniProt P08581, Y1235D)
Text: as §1

WNK2 = WNK2 (Homo sapiens, UniProt Q9Y3S1)
Text: as §1

NDR2 = molecular target: T8, NDR2 (Homo sapiens, UniProt Q9Y2H1)
T8 construct: gene STK38L
Text: as §1

LATS1, sequence (O95835 whole entry): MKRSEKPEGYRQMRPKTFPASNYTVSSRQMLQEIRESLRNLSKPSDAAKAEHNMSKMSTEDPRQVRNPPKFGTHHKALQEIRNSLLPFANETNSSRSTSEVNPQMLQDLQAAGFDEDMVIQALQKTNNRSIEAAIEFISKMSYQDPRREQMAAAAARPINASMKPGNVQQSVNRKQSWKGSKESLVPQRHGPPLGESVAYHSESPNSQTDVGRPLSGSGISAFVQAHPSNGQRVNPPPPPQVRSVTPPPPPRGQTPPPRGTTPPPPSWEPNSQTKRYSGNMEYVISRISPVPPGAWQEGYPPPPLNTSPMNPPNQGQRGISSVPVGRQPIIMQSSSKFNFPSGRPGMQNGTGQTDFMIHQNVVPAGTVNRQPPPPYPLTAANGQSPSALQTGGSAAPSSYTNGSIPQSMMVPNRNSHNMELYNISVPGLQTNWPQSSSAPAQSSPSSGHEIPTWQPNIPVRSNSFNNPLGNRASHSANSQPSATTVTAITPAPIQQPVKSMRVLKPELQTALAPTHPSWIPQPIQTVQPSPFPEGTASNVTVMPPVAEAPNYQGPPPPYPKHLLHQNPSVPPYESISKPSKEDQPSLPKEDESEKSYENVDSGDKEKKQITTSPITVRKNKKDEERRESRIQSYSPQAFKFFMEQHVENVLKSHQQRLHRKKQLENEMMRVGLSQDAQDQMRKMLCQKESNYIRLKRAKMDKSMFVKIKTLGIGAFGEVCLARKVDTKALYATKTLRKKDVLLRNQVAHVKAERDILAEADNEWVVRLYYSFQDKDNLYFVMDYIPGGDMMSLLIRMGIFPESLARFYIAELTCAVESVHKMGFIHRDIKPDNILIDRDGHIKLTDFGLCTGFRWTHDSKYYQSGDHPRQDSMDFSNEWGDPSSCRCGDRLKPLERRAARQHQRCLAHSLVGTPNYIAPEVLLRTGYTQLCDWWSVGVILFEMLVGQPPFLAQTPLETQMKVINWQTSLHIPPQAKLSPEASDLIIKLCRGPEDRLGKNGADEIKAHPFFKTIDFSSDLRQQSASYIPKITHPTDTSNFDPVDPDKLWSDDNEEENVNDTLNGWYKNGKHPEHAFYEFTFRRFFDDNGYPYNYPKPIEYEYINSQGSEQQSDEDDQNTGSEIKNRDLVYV
T8 sequence (Q9Y2H1 whole entry): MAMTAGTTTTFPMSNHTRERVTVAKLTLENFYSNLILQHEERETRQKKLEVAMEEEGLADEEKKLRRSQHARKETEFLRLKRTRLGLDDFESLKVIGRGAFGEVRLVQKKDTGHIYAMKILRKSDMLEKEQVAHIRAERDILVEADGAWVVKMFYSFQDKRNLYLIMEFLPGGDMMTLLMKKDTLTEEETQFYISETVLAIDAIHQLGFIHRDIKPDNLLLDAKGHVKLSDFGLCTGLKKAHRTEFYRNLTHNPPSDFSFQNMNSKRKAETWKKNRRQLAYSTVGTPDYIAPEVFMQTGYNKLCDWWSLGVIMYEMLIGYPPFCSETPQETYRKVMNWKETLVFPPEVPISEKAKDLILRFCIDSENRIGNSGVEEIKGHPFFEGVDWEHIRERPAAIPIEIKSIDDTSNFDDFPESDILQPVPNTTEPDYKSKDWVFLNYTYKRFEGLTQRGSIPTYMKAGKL
PIK3CG, sequence (P48736 whole entry): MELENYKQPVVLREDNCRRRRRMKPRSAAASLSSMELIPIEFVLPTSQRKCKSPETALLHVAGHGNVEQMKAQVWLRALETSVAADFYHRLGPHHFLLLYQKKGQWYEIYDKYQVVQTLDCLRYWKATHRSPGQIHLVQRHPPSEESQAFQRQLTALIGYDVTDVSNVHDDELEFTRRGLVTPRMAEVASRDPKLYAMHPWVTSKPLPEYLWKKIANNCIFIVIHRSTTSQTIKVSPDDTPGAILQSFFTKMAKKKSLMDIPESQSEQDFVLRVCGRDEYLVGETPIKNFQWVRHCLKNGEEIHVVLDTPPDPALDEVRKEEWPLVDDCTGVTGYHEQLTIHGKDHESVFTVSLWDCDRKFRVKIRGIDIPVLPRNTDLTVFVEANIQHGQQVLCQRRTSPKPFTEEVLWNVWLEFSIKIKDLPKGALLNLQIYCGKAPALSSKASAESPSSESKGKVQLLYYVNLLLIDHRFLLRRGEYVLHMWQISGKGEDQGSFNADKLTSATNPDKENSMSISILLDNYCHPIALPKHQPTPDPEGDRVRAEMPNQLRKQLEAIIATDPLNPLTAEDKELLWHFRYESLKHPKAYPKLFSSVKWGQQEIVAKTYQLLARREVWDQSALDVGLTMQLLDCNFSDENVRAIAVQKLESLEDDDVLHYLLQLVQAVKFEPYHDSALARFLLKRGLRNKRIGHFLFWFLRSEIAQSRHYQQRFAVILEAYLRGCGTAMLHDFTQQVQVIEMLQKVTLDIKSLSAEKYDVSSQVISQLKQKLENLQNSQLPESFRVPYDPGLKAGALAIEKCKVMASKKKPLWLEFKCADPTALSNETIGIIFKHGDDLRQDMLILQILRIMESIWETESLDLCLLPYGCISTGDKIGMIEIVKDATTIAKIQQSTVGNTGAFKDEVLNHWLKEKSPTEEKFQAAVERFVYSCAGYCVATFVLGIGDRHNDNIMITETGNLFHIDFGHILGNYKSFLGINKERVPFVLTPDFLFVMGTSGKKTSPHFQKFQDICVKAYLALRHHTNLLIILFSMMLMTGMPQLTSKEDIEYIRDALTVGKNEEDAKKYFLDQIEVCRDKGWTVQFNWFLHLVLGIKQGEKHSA
T4 sequence (Q13188 whole entry): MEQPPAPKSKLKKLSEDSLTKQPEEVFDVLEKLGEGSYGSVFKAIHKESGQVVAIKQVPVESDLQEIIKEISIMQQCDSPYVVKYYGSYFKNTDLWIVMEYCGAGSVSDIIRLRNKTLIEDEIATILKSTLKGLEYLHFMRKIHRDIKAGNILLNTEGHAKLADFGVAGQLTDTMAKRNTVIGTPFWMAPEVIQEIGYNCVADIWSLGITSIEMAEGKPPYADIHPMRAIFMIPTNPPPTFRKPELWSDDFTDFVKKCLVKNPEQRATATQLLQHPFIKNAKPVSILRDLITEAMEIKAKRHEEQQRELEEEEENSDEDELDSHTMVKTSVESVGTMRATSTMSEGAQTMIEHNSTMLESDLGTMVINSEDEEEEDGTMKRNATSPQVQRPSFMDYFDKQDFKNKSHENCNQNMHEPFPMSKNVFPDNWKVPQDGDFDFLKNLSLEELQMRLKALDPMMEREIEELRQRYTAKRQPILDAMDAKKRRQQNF
CASK, sequence (O14936 whole entry): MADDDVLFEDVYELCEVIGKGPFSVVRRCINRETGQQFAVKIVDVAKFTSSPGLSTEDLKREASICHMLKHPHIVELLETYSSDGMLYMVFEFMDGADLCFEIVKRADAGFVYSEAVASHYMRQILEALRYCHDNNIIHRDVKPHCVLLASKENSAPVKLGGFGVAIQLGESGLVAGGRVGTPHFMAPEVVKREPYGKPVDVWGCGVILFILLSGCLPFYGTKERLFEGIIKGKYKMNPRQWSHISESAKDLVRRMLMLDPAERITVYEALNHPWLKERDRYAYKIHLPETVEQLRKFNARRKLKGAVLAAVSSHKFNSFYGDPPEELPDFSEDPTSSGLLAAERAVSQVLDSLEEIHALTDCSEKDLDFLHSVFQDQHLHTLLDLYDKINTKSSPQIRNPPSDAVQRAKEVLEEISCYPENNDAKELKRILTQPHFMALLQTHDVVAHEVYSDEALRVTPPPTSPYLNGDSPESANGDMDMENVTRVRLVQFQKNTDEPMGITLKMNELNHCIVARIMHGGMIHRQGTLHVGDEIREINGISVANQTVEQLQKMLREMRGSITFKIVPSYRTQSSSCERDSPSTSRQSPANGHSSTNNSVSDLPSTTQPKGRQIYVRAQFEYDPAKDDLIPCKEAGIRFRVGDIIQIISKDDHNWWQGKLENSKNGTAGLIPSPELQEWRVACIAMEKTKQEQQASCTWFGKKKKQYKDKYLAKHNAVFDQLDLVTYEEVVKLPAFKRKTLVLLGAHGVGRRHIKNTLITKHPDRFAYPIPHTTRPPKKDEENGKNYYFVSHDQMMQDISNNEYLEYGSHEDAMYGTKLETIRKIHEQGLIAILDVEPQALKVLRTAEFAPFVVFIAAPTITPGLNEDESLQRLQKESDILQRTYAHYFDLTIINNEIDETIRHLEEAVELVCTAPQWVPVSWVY
T7 sequence (Q02779 whole entry): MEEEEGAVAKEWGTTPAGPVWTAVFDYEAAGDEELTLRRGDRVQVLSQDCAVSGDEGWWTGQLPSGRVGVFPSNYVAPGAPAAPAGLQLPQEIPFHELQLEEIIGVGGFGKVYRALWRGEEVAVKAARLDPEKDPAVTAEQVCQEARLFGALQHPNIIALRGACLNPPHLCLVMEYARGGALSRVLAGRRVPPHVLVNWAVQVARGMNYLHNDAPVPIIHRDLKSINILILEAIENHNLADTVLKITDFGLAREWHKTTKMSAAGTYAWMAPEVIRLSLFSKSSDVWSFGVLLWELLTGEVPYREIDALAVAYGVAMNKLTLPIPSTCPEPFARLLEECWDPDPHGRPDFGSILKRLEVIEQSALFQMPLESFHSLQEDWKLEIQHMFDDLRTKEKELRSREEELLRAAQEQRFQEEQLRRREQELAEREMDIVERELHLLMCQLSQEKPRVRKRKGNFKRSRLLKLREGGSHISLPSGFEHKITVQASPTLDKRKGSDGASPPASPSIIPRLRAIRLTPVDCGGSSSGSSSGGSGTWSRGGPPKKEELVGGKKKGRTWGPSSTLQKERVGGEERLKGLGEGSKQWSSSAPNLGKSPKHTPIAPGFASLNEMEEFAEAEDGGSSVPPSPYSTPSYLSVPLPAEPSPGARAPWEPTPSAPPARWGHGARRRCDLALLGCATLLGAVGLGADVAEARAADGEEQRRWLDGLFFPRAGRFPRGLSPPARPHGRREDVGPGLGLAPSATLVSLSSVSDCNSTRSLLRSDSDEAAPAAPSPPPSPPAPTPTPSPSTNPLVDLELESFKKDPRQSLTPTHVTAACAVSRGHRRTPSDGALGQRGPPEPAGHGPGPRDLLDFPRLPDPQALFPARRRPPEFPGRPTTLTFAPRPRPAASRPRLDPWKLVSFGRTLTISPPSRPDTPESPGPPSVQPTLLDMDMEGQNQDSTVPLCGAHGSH

Cn1c(=O)[nH]c2ccc(-c3cccc(C(=O)NC4CCn5ccnc5C4)c3)cc21 (stereo not drawn) [Z36-MP5]
remaining binding at 1 µM [1]: 82%
remaining binding at 1 µM (RIOK2): 84%
remaining binding at 1 µM (EGFR(L747-T751del,Sins)): 84%
remaining binding at 1 µM (RIPK5): 54%
remaining binding at 1 µM (DDR1): 88%
remaining binding at 1 µM (CASK): 60%
remaining binding at 1 µM (RIPK1): 87%
remaining binding at 1 µM (LATS1): 100%
remaining binding at 1 µM (PIK3CG): 83%
remaining binding at 1 µM (IKK-epsilon): 84%
remaining binding at 1 µM (MST2): 93%
remaining binding at 1 µM (SNARK): 64%
remaining binding at 1 µM (CDC2L1): 88%
remaining binding at 1 µM (ZAP70): 91%
remaining binding at 1 µM (TXK): 98%
remaining binding at 1 µM (PKN2): 98%
remaining binding at 1 µM (MLK2): 95%
remaining binding at 1 µM (MARK1): 92%
remaining binding at 1 µM (EGFR(L858R,T790M)): 39%
remaining binding at 1 µM (AURKA): 56%
remaining binding at 1 µM (EGFR(G719S)): 85%
remaining binding at 1 µM (MET(Y1235D)): 93%
remaining binding at 1 µM (WNK2): 63%
remaining binding at 1 µM (NDR2): 74%
